Like-named read-outs stand apart in the source and are kept apart here.
How the values were obtained:
in vivo = details: mouse, in vivo, po
female CF1 S mice = experiment: Mouse spontaneous motor activity (activity cage); format: in vivo, mouse (CF1 S female); details: 0.5 h, read-out: Exploratory Loss Activity Cage ED50
Method: Mouse Spontaneous Motor Activity (Activity Cage)
Twenty-four per dose, 16- 20 g or 18-22 g, female CF1 S mice, fasted 16- 22 hours, are intubated (in pairs) with drug at t doses such as 0, 1, 3, 9, 27 and 81 mg/kg in 10 ml/kg of aqueous 1% methylcellulose. The mice are then put in separate "shoe-box" cages (12 × 7.5 × 5.3 inches plastic with a 0.33 inch mesh stainless steel lid), and 20 minutes after intubation the animals in pairs are moved to covered Woodard Photoelectric Activity Chambers (central light source type measurement floor area = 96 in^2). Ten minutes later (30 minutes after dosing) a 5-minute count is taken. Counting chamber characteristics are balanced out by counting 2 pairs of mice from each dose level in each of 6 different counting chambers. Half of each test is run in the a.m. and the other half is run in the p.m. to minimize "biological clock" variations.
Canad. Biol. 20, 239-50 (1961), raw counts are thus transformed for statistical treatment (Student's t test). The means of the square roots then are squared and an ED50 for stimulation or depression (or both) is determined graphically.

Holzman male white rats = experiment: Rat approach-avoidance test (anti-anxiety); format: in vivo, rat (Holzman male white); details: for anti-anxiety activity: in words; for ED50: Rattus norvegicus
Method: Potential as anti-anxiety agents was assessed by means of the potency of these compounds in the rat approach-avoidance test.
Approach-Avoidance Test Method
18 hr. waterdeprived Holzman male white rats, 150-175 g each, were used. The apparatus consists of two interconnected chambers, the first in which the animal is placed, and a second which contains the stimulus and a water bottle. The second is fitted with an electrifiable floor. On the first day, the rats are placed in the first chamber. They are allowed three minutes to find the water bottle in the second chamber and to drink water for at least two seconds. After three successful trials on the first day the animals are given one predrug trial on the second day. Then follows a second predrug trial during which the floor of the second chamber is electrified 1.5 seconds after the rat has commenced drinking water. The animals are randomized, dosed orally, and reexposed to the test situation at 1, 2, or 4 hours after the shock trial.

female white mice = experiment: animal or person; details: Mus musculus, po
[1] = test system: phenylquinone-induced writhing; experiment: Phenylquinone writhing test (analgesia); format: in vivo, mouse (Carworth CF1 S female); details: Mus musculus
Description: This mouse test is predictive of analgesic response in humans. [E. Siegmund, R. Cadmus and G. Lee, Proc. Soc.
ED50 values were obtained graphically from the data.

[2] = read-out: Catatonia ED50, Table 1, oral, mice
[3] = read-out: Exploratory Loss Visual ED50, Table 1, oral, mice
[4] = read-out: Muscle Tone ED50, Table 1, oral, mice
[5] = read-out: Ptosis ED50, Table 1, oral, mice
[6] = read-out: Reflexes Grip ED50, Table 1, oral, mice
[7] = read-out: Reflexes Lift ED50, Table 1, oral, mice
[8] = read-out: Reflexes Pinna ED50, Table 1, oral, mice
[9] = Table 1, oral, mice, 30 minutes after dosing
[10] = read-out: Ptosis ED50, Table 1, Extrapolated value
[11] = 0.3 mg/kg oral, 4 hrs, N=10 rats
[12] = Table II, oral, rats, 4 hrs, read-out: ED50

In the case of `CN(C)CCCN1c2ccccc2Sc2ccc(Cl)cc21` [Chlopromazine, Chlorpromazine, reference compound], the ED50 (in vivo; Tremors ED50) is reported as greater than 324 mg/kg, the ED50 (female CF1 S mice; po) is reported as 7.3 mg/kg and the anti-anxiety activity (Holzman male white rats) is reported as “not active at non-sedating doses”.

`c1ccc2c(c1)[C@@H]1C[C@@]3(CN(CC4CCC4)C[C@H]23)c2ccccc21` (relative stereo) [Example 19, 2-Cyclobutylmethyl-2,3,8,12b-tetrahydro-1H-3a,8-methanodibenzo[3,4:6,7]cyclohepta[1,2-c]pyrrole] showed an ED50 (female white mice; [2]) of 20 mg/kg, an ED50 (female white mice; [3]) of 20 mg/kg and an ED50 (female white mice; [4]) of 12 mg/kg. The ED50 (female white mice; [5]) was 7 mg/kg, the ED50 (female white mice; [6]) was 200 mg/kg and the ED50 (female white mice; [7]) was 20 mg/kg. For the same molecule, the ED50 (female white mice; [8]) was 12 mg/kg, the LD50 at 24 h (in vivo) was greater than 324 mg/kg and the ED50 (in vivo; Tremors ED50, Table 1, mice) was greater than 324 mg/kg. The ED50 (female CF1 S mice; po) was 1 mg/kg and the ED50 ([1]; Table 1, oral, mice) was 5 mg/kg.

With `C1=CCC(CN2CC3c4ccccc4C4CC3(C2)c2ccccc24)CC1` (stereo not drawn) [Example 27, 2-(3-Cyclohexenylmethyl)-2,3,8,12b-tetrahydro-1H-3a,8-methanodibenzo[3,4:6,7]cyclohepta[1,2-c]pyrrole] the ED50 (female white mice; [2]) was 4.5 mg/kg, the ED50 (female white mice; [3]) was 4.5 mg/kg and the ED50 (female white mice; [4]) was 4.5 mg/kg. For the same molecule, the ED50 (female white mice; [5]) was 2.9 mg/kg, the ED50 (female white mice; [6]) was 97 mg/kg and the ED50 (female white mice; [7]) was 9 mg/kg. It also gave an ED50 (female white mice; [8]) of 8 mg/kg, an ED50 (in vivo) greater than 324 mg/kg and an LD50 at 24 h (in vivo) greater than 324 mg/kg. It also gave an ED50 (female CF1 S mice; [9]) of 0.29 mg/kg and an ED50 ([1]; po, Table 1, mice) of 4.2 mg/kg.

With `c1ccc(CN2CC3c4ccccc4C4CC3(C2)c2ccccc24)cc1` (stereo not drawn) [Example 4, 2-Benzyl-2,3,8,12b-tetrahydro-1H-3a,8-methanodibenzo[3,4:6,7]cyclohepta[1,2-c]pyrrole] the ED50 (female white mice; [2]) was 20 mg/kg, the ED50 (female white mice; [3]) was 20 mg/kg and the ED50 (female white mice; [4]) was 20 mg/kg. The ED50 (female white mice; [5]) was 20 mg/kg, the ED50 (female white mice; [6]) was greater than 324 mg/kg and the ED50 (female white mice; [7]) was 36 mg/kg. It also gave an ED50 (female white mice; [8]) of 300 mg/kg, an ED50 (in vivo) greater than 324 mg/kg and an LD50 at 24 h (in vivo) greater than 324 mg/kg. It also gave an ED50 (female CF1 S mice; [9]) of 4.6 mg/kg and an ED50 ([1]; po, Table 1, mice) of 9.4 mg/kg.

`c1ccc2c(c1)C1CC3(CN(CC4CCCC4)CC23)c2ccccc21` (stereo not drawn) [Example 7, 2-Cyclopentylmethyl-2,3,8,12b-tetrahydro-1H-3a,8-methanodibenzo[3,4:6,7]cyclohepta[1,2-c]pyrrole] gave an ED50 (female white mice; [2]) of 8 mg/kg, an ED50 (female white mice; [3]) of 7 mg/kg and an ED50 (female white mice; [4]) of 7 mg/kg. It also gave an ED50 (female white mice; [10]) of 3 mg/kg, an ED50 (female white mice; [6]) of 210 mg/kg and an ED50 (female white mice; [7]) of 11 mg/kg. It also gave an ED50 (female white mice; [8]) of 9 mg/kg, an ED50 (in vivo) greater than 324 mg/kg and an LD50 at 24 h (in vivo) greater than 324 mg/kg. The ED50 (female CF1 S mice; [9]) was 0.66 mg/kg, the “No. of Responders” value (Holzman male white rats; 0.03 mg/kg oral, 4 hrs, N=10 rats) was 1 and the “No. of Responders” value (Holzman male white rats; 0.1 mg/kg oral, 4 hrs, N=20 rats) was 7. For the same molecule, the “No. of Responders” value (Holzman male white rats; [11]) was 6, the ED50 (Holzman male white rats; [12]) was 0.2 mg/kg and the anti-anxiety activity (Holzman male white rats) was “potent anti-anxiety or minor tranquilizer activity”. For the same molecule, the ED50 ([1]; po, Table 1, mice) was 2 mg/kg.

In the case of `c1ccc2c(c1)C1CC3(CN(CC4CCCCC4)CC23)c2ccccc21` (stereo not drawn) [Example 25, 2-Cyclohexylmethyl-2,3,8,12b-tetrahydro-1H-3a,8-methanodibenzo[3,4:6,7]cyclohepta[1,2-c]pyrrole], the ED50 (female white mice; [2]) is reported as 9 mg/kg, the ED50 (female white mice; [3]) is reported as 9 mg/kg and the ED50 (female white mice; [4]) is reported as 8 mg/kg. For the same molecule, the ED50 (female white mice; [10]) was 3 mg/kg, the ED50 (female white mice; read-out: Reflexes Grip ED50, Table 1, Extrapolated value) was 450 mg/kg and the ED50 (female white mice; [7]) was 8 mg/kg. For the same molecule, the ED50 (female white mice; [8]) was 7 mg/kg, the ED50 (in vivo) was 450 mg/kg and the LD50 at 24 h (in vivo) was 320 mg/kg. The ED50 (female CF1 S mice; [9]) was 4.7 mg/kg, the “No. of Responders” value (Holzman male white rats; 0.1 mg/kg oral, 4 hrs, N=10 rats) was 1 and the “No. of Responders” value (Holzman male white rats; [11]) was 2. The “No. of Responders” value (Holzman male white rats; 1.0 mg/kg oral, 4 hrs, N=8 rats) was 5, the ED50 (Holzman male white rats; [12]) was 0.5 mg/kg and the anti-anxiety activity (Holzman male white rats) was “potent anti-anxiety or minor tranquilizer activity”. It also gave an ED50 ([1]; po, Table 1, mice) of 6.4 mg/kg.

With `CCCCCCCN1CC2c3ccccc3C3CC2(C1)c1ccccc13` (stereo not drawn) [Example 15, 2-n-Heptyl-2,3,8,12b-tetrahydro-1H-3a,8-methanodibenzo[3,4:6,7]cyclohepta[1,2-c]pyrrole] the ED50 (female white mice; [2]) was 5 mg/kg, the ED50 (female white mice; read-out: Exploratory Loss Visual ED50, Table 1, Extrapolated value) was 3.2 mg/kg and the ED50 (female white mice; read-out: Muscle Tone ED50, Table 1, Extrapolated value) was 3 mg/kg. The ED50 (female white mice; [5]) was less than 3 mg/kg, the ED50 (female white mice; [6]) was 260 mg/kg and the ED50 (female white mice; [7]) was 9 mg/kg. The ED50 (in vivo) was greater than 324 mg/kg, the LD50 at 24 h (in vivo) was greater than 324 mg/kg and the ED50 (female CF1 S mice; [9]) was 1 mg/kg. It also gave an ED50 ([1]; po, Table 1, mice) of 3.6 mg/kg.

For `C1=C(CN2CC3c4ccccc4C4CC3(C2)c2ccccc24)CCCC1` (stereo not drawn) [Example 26, 2-(1-Cyclohexenylmethyl)-2,3,8,12b-tetrahydro-1H-3a,8-methanodibenzo[3.4:6,7]cyclohepta[1,2-c]pyrrole], the ED50 (female white mice; [2]) was 10 mg/kg, the ED50 (female white mice; [3]) was 12 mg/kg and the ED50 (female white mice; [4]) was 7 mg/kg. The ED50 (female white mice; [5]) was 6 mg/kg, the ED50 (female white mice; [6]) was 400 mg/kg and the ED50 (female white mice; [7]) was 15 mg/kg. For the same molecule, the ED50 (female white mice; [8]) was 15 mg/kg, the ED50 (in vivo) was greater than 324 mg/kg and the LD50 at 24 h (in vivo) was greater than 324 mg/kg. For the same molecule, the ED50 (female CF1 S mice; [9]) was 0.8 mg/kg and the ED50 ([1]; po, Table 1, mice) was 6.8 mg/kg.

For `CN1C(=O)CN=C(c2ccccc2)c2cc(Cl)ccc21` [Diazepam, reference compound], the ED50 (in vivo; Tremors ED50, Table 1, mice) was greater than 324 mg/kg, the ED50 (female CF1 S mice; po) was 2 mg/kg and the “No. of Responders” value (Holzman male white rats; 1 mg/kg oral, 1 hr, N=6 rats) was 0. The “No. of Responders” value (Holzman male white rats; 3 mg/kg oral, 1 hr, N=6 rats) was 2, the “No. of Responders” value (Holzman male white rats; 10 mg/kg oral, 1 hr, N=6 rats) was 5 and the ED50 (Holzman male white rats; po, 1 h) was 6 mg/kg. For the same molecule, the anti-anxiety activity (Holzman male white rats) was “active in this test”.

— patent US4088772A, “Methanodibenzocycloheptapyrroles” (E. I. Du Pont de Nemours and Company, priority 1975, dated 1978)
